Values quoted from earlier work in patent publication US7141428B2 (priority 2000, dated 2006).

How the values were obtained:
growth cone collapse = settings: collapse induced by activation of Rho or ROK
[1] = molecular target: Rho kinase (Rho-associated protein kinase, p160ROCK) (Homo sapiens, UniProt Q13464)
Rho kinase (Rho-associated protein kinase, p160ROCK), sequence (Q13464 whole entry, looked up): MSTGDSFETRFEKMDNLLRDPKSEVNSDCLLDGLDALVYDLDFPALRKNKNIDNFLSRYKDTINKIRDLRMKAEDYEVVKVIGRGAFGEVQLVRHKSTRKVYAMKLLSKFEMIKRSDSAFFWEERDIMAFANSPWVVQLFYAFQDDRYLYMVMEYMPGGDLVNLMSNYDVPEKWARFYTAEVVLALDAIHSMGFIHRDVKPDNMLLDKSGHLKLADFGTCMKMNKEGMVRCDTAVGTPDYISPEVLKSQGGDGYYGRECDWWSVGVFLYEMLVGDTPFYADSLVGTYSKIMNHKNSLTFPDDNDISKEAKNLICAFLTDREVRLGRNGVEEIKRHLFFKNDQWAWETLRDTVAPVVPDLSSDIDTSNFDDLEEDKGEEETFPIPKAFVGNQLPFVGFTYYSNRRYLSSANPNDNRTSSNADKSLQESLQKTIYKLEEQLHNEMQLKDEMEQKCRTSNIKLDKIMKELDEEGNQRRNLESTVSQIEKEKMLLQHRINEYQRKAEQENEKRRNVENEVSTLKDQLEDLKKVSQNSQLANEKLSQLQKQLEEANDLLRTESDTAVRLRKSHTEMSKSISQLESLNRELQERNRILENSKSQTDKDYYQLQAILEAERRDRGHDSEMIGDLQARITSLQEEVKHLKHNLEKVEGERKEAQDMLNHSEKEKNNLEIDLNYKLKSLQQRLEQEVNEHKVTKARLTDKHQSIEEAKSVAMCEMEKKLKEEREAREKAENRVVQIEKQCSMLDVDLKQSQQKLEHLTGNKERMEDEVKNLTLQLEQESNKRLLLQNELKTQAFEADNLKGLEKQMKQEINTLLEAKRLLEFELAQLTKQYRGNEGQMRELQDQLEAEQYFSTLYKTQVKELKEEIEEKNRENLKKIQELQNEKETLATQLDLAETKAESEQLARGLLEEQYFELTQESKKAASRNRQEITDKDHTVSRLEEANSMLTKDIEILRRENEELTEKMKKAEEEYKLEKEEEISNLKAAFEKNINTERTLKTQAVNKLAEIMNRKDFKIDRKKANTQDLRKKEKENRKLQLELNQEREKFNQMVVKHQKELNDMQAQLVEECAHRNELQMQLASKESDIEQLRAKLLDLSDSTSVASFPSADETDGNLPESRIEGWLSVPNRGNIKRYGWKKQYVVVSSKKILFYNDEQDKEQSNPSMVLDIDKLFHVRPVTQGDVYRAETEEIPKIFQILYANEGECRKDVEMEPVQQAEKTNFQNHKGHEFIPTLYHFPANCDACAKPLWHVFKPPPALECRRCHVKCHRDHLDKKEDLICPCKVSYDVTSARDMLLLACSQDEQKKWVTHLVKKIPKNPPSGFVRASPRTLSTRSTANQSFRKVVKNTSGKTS

C[C@@H](N)[C@H]1CC[C@H](C(=O)Nc2ccncc2)CC1 [Y-27632, (R)-(+)-trans-N-(4-pyridyl)-4-(1-aminoethyl)-cyclohexanecarboamide]
prevention of growth cone collapse (growth cone collapse): can be prevented
concentration at which Rho kinase is inhibited [1]: sub-micromolar
